The values that follow come from ChEMBL document CHEMBL5365447, “Pronucleotides of 2',3'-Dideoxy-2',3'-Didehydrothymidine as Potent Anti-HIV Compounds” (J Med Chem, 2023).

Active and inactive are the calls of the source. No cut-off for these calls is given here.

In data set [1] the target is T1, DNA polymerase alpha catalytic subunit (Homo sapiens) (UniProt P09884).
T1 sequence (whole entry): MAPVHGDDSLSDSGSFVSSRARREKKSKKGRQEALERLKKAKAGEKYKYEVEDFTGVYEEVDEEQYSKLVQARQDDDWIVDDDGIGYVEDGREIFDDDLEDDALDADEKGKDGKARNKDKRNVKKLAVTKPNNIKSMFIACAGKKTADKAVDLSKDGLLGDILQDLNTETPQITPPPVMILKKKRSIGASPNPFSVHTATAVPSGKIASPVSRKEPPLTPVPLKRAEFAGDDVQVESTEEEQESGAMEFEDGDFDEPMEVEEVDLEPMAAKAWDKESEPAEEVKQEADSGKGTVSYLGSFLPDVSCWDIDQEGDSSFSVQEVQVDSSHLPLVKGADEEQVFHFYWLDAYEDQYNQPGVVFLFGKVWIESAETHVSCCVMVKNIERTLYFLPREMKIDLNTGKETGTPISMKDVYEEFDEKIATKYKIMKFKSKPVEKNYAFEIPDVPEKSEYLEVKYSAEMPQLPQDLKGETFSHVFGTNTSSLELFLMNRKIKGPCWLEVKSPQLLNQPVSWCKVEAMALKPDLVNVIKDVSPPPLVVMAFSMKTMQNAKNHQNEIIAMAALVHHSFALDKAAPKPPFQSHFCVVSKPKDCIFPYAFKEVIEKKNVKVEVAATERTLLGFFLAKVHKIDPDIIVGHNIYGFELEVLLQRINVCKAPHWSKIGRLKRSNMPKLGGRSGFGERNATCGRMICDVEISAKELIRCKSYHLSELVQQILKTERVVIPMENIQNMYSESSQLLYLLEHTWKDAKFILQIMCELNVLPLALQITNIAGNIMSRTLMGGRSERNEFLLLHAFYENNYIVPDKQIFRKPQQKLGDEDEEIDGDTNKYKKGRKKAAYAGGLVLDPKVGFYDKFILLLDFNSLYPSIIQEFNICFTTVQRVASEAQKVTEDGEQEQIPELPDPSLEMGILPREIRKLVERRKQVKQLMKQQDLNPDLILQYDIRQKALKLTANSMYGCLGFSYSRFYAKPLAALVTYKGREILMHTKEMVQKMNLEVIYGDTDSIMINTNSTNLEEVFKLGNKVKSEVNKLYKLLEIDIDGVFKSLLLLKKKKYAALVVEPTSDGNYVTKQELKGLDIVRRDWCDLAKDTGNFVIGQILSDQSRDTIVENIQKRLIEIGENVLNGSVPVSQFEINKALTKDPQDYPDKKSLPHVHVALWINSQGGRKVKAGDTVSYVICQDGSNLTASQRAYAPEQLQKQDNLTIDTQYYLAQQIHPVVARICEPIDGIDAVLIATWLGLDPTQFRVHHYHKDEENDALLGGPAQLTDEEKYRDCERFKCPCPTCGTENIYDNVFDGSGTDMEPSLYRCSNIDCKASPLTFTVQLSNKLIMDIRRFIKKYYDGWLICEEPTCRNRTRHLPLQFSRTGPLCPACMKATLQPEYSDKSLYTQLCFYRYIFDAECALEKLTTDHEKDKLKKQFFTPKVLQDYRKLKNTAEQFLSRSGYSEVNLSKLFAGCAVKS
Nature of the data set: Substrate activity at human DNA polymerase alpha measured after 4 hrs by electrophoresis based primer extension assay.

A short description of data set [2]: Prodrug conversion in pH 7.3 phosphate buffer assessed as ((2S,5R)-5-(5-methyl-2,4-dioxo-3,4-dihydropyrimidin-1(2H)-yl)-2,5-dihydrofuran-2-yl)methyl tri-hydrogen diphosphate formation by measuring half life in presence of pig liver esterase by HPLC analysis. It is filed as ADME.
Data set [3] is described as follows: Retention time of the compound by HPLC analysis. It is filed as physicochemical.
The nature of data set [4]: Chemical stability of the compound in phosphate buffer assessed as half life at pH 7.3 by HPLC analysis. It is filed as physicochemical.
Data set [5] is described as follows: Prodrug conversion in human CEM/0 cell extract assessed as ((2S,5R)-5-(5-methyl-2,4-dioxo-3,4-dihydropyrimidin-1(2H)-yl)-2,5-dihydrofuran-2-yl)methyl dihydrogen phosphate formation by HPLC analysis. It counts as ADME. As to conditions: ccrf-cem.
The test system of data set [6] is Human immunodeficiency virus. Kind of data set: Substrate activity at HIV reverse transcriptase measured after 4 hrs by electrophoresis based primer extension assay.
Data set [7] can be described thus: Selectivity index, ratio of CC50 for human CEM cells to EC50 for HIV-2 ROD infected in thymidine kinase-deficient human CEM cells. It counts as toxicity. As to conditions: read-out: Ratio CC50/EC50.

For `CCCCCCCCCCCCCCCCCCP(=O)(OC)OP(=O)(O)OP(=O)(O)OC[C@@H]1C=C[C@H](n2cc(C)c(=O)[nH]c2=O)O1.N.N` (some centres not stated), in data set [1], the result was inactive. Also, the t1/2 in data set [2] is greater than 6.25 days. The Retention_time in data set [3] stood at 15.2 min. Moreover, the half-life in data set [4] was 27.2 days. In addition, in data set [5], the Drug metabolism entry is “Metabolite_Detected”. Further, the result in data set [6] was Active. Moreover, the selectivity ratio in data set [7] came out at 83.
